Converted amounts (≈) assume the structure as drawn.
Tests used:
[1] = at 20° C.; cited from earlier work
[2] = Comparative experiment: urea treated with DMPP/NBPT emulsion, degradation on storage (HPLC); settings: for amount broken down: after a period of 7 days
[3] = Storage stability test of treated urea fertilizers (NBPT and DMPSA content over time); type: physicochemical; settings: urea coated with DMPSA/NBPT emulsion (invention, FIG. 2) versus sequential application (comparative, FIG. 1); stored 90 days under standard conditions in a climate-controlled cabinet
Method: 20 kg of granulated urea was initially charged in a mixer. 35 g of the NBPT formulation and 79 g of DMPSA formulation were introduced into a spray bottle and shaken until a homogeneous emulsion had formed. The formulation emulsion was immediately sprayed onto the urea, with intermittent shaking of the spray bottle in order to prevent settling of the emulsion. The mixer was operated for a further 10 minutes until a homogeneous product was obtained.
In a comparative experiment, identical amounts of DMPSA and NBPT were applied to urea. DMPSA formulation was applied first to the urea by the method described above, and the NBPT formulation was applied after drying.
Storage stability tests were conducted for both the urea fertilizers treated. They were stored for a period of 90 days under standard conditions in a climate-controlled cabinet. The NBPT and DMPSA content was determined at time intervals.

Compound	water solubility [1] [µg/mL]	degradation characteristics [2]	amount broken down [2]	decrease in NBPT and DMPSA content over time [3]
CCCCCC(CO)CCC (stereo not shown) [2-Propylheptan-1-ol]	58 (≈ 366 µM)	–	–	–
Cc1c[nH]nc1C.O=P(O)(O)O [DMPP, 3,4-dimethylpyrazole phosphate, reference compound]	–	rapid degradation characteristics	about 50%	–
Cc1cn(C(CC(=O)O)C(=O)O)nc1C (stereo not shown) [DMPSA, 2-(N-3,4-dimethylpyrazole)succinic acid]	–	–	–	significantly smaller
CCCCNP(N)(N)=S [NBPT, N-(n-butyl)-thiophosphoric acid triamide]	–	rapid degradation characteristics	100%	significantly smaller
